In general, IC50 refers to the point on the concentration scale where inhibition reaches its midpoint.

For the first assay, the target named is hQC (Homo sapiens, UniProt Q16769). The assay is described as follows: Fluorometric (fluorescent) assay of hQC inhibition, IC50. Type of assay: biochemical. The settings on record: hQC inhibition; read-out: IC50. How it is done: All compounds were immediately tested regarding their activity as hQC inhibitors.
hQC, sequence (Q16769 29-361): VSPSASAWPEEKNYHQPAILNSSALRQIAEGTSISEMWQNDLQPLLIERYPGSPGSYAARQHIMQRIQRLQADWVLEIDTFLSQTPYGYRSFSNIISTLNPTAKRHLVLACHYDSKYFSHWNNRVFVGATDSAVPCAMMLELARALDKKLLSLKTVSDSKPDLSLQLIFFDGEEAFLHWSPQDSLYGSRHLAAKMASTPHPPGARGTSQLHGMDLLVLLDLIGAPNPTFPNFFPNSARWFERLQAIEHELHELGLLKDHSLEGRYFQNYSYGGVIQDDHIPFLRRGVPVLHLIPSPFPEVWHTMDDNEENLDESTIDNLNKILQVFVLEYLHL
The purity of the compounds was determined by HPLC-MS. The IC50 value against hQC was measured using the fluorescent assay.
All measurements were performed with a BioAssay Reader HTS-7000Plus for microplates (Perkin Elmer) at 30° C. QC activity was evaluated fluorometrically using H-Gln-βNA. The samples consisted of 0.2 mM fluorogenic substrate, 0.25 U pyroglutamyl aminopeptidase (Unizyme, Horsholm, Denmark) in 0.2 M Tris/HCl, pH 8.0 containing 20 mM EDTA and an appropriately diluted aliquot of QC in a final volume of 250 μl. Excitation/emission wavelengths were 320/410 nm. The assay reactions were initiated by addition of glutaminyl cyclase. QC activity was determined from a standard curve of β-naphthylamine under assay conditions. One unit is defined as the amount of QC catalyzing the formation of 1 μmol pGlu-βNA from H-Gln-βNA per minute under the described conditions.
In a second fluorometric assay, QC was activity determined using H-Gln-AMC as substrate. Reactions were carried out at 30° C. utilizing the NOVOStar reader for microplates (BMG labtechnologies). The samples consisted of varying concentrations of the fluorogenic substrate, 0.1 U pyroglutamyl aminopeptidase (Qiagen) in 0.05 M Tris/HCl, pH 8.0 containing 5 mM EDTA and an appropriately diluted aliquot of QC in a final volume of 250 μl. Excitation/emission wavelengths were 380/460 nm. The assay reactions were initiated by addition of glutaminyl cyclase. QC activity was determined from a standard curve of 7-amino-4-methylcoumarin under assay conditions. The kinetic data were evaluated using GraFit sofware.
For inhibitor testing, the sample composition was the same as described above, except of the putative inhibitory compound added. For a rapid test of QC-inhibition, samples contained 4 mM of the respective inhibitor and a substrate concentration at 1 KM. For detailed investigations of the inhibition and determination of Ki-values, influence of the inhibitor on the auxiliary enzymes was investigated first. […] The inhibitory constant was evaluated by fitting the set of progress curves to the general equation for competitive inhibition using GraFit software.
As to `Brc1cc(Br)cc(C(Nc2ccc3[nH]cnc3c2)c2nnnn2Cc2ccccc2)c1` (stereo not shown) [compound 190, (1H-Benzoimidazol-5-yl)-[(1-benzyl-1H-tetrazol-5-yl)-(3,5-dibromo-phenyl)-methyl]-amine], the IC50 was 1.3 µM.

For the molecule `O=C1CCCN1CCCn1nnnc1C(Nc1ccc2[nH]cnc2c1)c1ccc(Br)cc1` (stereo not shown) [compound 194, 1-(3-{5-[(1H-Benzoimidazol-5-ylamino)-(4-bromo-phenyl)-methyl]-tetrazol-1-yl}-propyl)-pyrrolidn-2-one], the concentration for half-maximal inhibition (IC50) stood at 8.5 µM.

Consider `CN(C)c1ccc(C(Nc2ccc3[nH]cnc3c2)c2nnnn2Cc2cccnc2)cc1` (stereo not shown) [compound 115, (1H-Benzoimidazol-5-yl)-[(4-dimethylamino-phenyl)-(1-pyridin-3-ylmethyl-1H-tetrazol-5-yl)-methyl]-amine], for which the IC50 was found to be 5.8 µM.

Turning to `COc1ccc(C(Nc2ccc3[nH]cnc3c2)c2nnnn2-c2ccccc2OCc2ccccc2)cc1` (stereo not shown) [compound 210, (1H-Benzoimidazol-5-yl)-[[1-(2-benzyloxy-phenyl)-1H-tetrazol-5-yl]-(4-methoxy-phenyl)-methyl]-amine], the IC50 was 2.2 µM.

In the case of `Clc1ccc(C(Nc2ccc3[nH]cnc3c2)c2nnnn2Cc2ccccc2Cl)cc1` (stereo not shown) [compound 127, (1H-Benzoimidazol-5-yl)-[[1-(2-chloro-benzyl)-1H-tetrazol-5-yl]-(4-chloro-phenyl)-methyl]-amine], the IC50 is 3.1 µM.

As to `COC(=O)c1cccc(C(Nc2ccc3[nH]cnc3c2)c2nnnn2-c2ccc(C(C)(C)C)cc2)c1` (stereo not shown) [compound 128, 3-{(1H-Benzoimidazol-5-ylamino)-[1-(4-tert-butyl-phenyl)-1H-tetrazol-5-yl]-methyl}-benzoic acid methyl ester], the IC50 amounted to 6.7 µM.

Take `Brc1cc(Br)cc(C(Nc2ccc3[nH]cnc3c2)c2nnnn2CCCCc2ccccc2)c1` (stereo not shown) [compound 189, (1H-Benzoimidazol-5-yl)-{(3,5-dibromo-phenyl)-[1-(4-phenyl-butyl)-1H-tetrazol-5-yl]-methyl}-amine]: the IC50 came to 3.1 µM.

Consider `CC(C)(C)OC(=O)Cn1nnnc1C(Nc1ccc2[nH]cnc2c1)c1ccc2c(c1)OCO2` (stereo not shown) [compound 119, {5-[Benzo[1,3]dioxol-5-yl-(1H-benzoimidazol-5-ylamino)-methyl]-tetrazol-1-yl}-acetic acid tert-butyl ester], for which the IC50 was 2.2 µM.

Regarding `C1=CCC(C(Nc2ccc3[nH]cnc3c2)c2nnnn2CCc2cccs2)CC1` (stereo not shown) [compound 167, (1H-Benzoimidazol-5-yl)-{cyclohex-3-enyl-[1-(2-thiophen-2-yl-ethyl)-1H-tetrazol-5-yl]-methyl}-amine], the IC50 was found to be 8.5 µM.

In the case of `CC(C)(C)OC(=O)Cn1nnnc1C(Nc1ccc2[nH]cnc2c1)c1ccc(-c2ccccn2)cc1` (stereo not shown) [compound 212, {5-[(1H-Benzoimidazol-5-ylamino)-(4-pyridin-2-yl-phenyl)-methyl]-tetrazol-1-yl}-acetic acid tert-butyl ester], the IC50 stood at 2.2 µM.

As to `Clc1ccccc1Cn1nnnc1C(Nc1ccc2[nH]cnc2c1)c1cccnc1` (stereo not shown) [compound 135, (1H-Benzoimidazol-5-yl)-{[1-(2-chloro-benzyl)-1H-tetrazol-5-yl]-pyridin-3-yl-methyl}-amine], the IC50 stood at 8.5 µM.

Consider `CC(Cc1ccc2c(c1)OCO2)C(Nc1ccc2[nH]cnc2c1)c1nnnn1CC(=O)OC(C)(C)C` (stereo not shown) [compound 149, {5-[3-Benzo[1,3]dioxol-5-yl-1-(1H-benzoimidazol-5-ylamino)-2-methyl-propyl]-tetrazol-1-yl}-acetic acid tert-butyl ester], for which the IC50 stood at 4.9 µM.

For the molecule `Clc1ccc(Cn2nnnc2C(Nc2ccc3[nH]cnc3c2)c2ccc(Cl)cc2)cc1` (stereo not shown) [compound 136, (1H-Benzoimidazol-5-yl)-[[1-(4-chloro-benzyl)-1H-tetrazol-5-yl]-(4-chloro-phenyl)-methyl]-amine], the IC50 came to 4 µM.

Regarding `OCc1ccc(C(Nc2ccc3[nH]cnc3c2)c2nnnn2-c2ccccc2OCc2ccccc2)o1` (stereo not shown) [compound 143, (5-{(1H-Benzoimidazol-5-ylamino)-[1-(2-benzyloxy-phenyl)-1H-tetrazol-5-yl]-methyl}-furan-2-yl)-methanol], the IC50 came out at 4.9 µM.

For `Brc1cc(Br)cc(C(Nc2ccc3[nH]cnc3c2)c2nnnn2C2CCCCC2)c1` (stereo not shown) [compound 175, (1H-Benzoimidazol-5-yl)-[(1-cyclohexyl-1H-tetrazol-5-yl)-(3,5-dibromo-phenyl)-methyl]-amine], the IC50 came out at 3.1 µM.

The assay is the same for the next values; noted with them: purified compound from preparative synthesis; fluorescent assay; read-out: IC50 hQC.
Take `Cc1ccc(O)c(C(NCCCn2ccnc2)c2nnnn2C2CC2)c1` (stereo not shown) [Compound 68, 2-[(1-Cyclopropyl-1H-tetrazol-5-yl)-(3-imidazol-1-yl-propylamino)-methyl]-4-methyl-phenol]: the IC50 was 0.668 µM.

Staying with this assay, now noted: read-out: IC50.
On to `C1=CO[C@H](C(NCCCn2ccnc2)c2nnnn2C2CC2)CC1` (stereo partly drawn) [compound 71, [(S)-(1-Cyclopropyl-1H-tetrazol-5-yl)-3,4-dihydro-2H-pyran-2-yl-methyl]-(3-imidazol-1-yl-propyl)-amine], for which the IC50 was 9.4 µM.

As for `c1ccc(-c2ccc(C(Nc3ccc4[nH]cnc4c3)c3nnnn3CC3CCCO3)cc2)nc1` (stereo not shown) [compound 76, (1H-Benzoimidazol-5-yl)-{(4-pyridin-2-yl-phenyl)-[1-(tetrahydro-furan-2-ylmethyl)-1H-tetrazol-5-yl]-methyl}-amine], the IC50 came out at 3.1 µM.

Take `COCCCn1nnnc1C(NCCCn1ccnc1)c1ccc2cccc(O)c2n1` (stereo not shown) [compound 34, 2-{(3-Imidazol-1-yl-propylamino)-[1-(3-methoxy-propyl)-1H-tetrazol-5-yl]-methyl}-quinolin-8-ol]: the IC50 came out at 2.2 µM.

With `COc1ccc(C(Nc2ccc3[nH]cnc3c2)c2nnnn2CC2CCCO2)cc1` (stereo not shown) [compound 88, (1H-Benzoimidazol-5-yl)-{(4-methoxy-phenyl)-[1-(tetrahydro-furan-2-ylmethyl)-1H-tetrazol-5-yl]-methyl}-amine], the IC50 is 4.9 µM.

With `CN(C)c1ccc(C(Nc2ccc3[nH]cnc3c2)c2nnnn2CC2CCCO2)cc1` (stereo not shown) [compound 108, (1H-Benzoimidazol-5-yl)-{(4-dimethylamino-phenyl)-[1-(tetrahydro-furan-2-ylmethyl)-1H-tetrazol-5-yl]-methyl}-amine], the IC50 is 5.8 µM.

Take `Cc1ccc(C(C)CC(Nc2ccc3[nH]cnc3c2)c2nnnn2CC2CCCO2)o1` (stereo not shown) [compound 111, (1H-Benzoimidazol-5-yl)-{3-(5-methyl-furan-2-yl)-1-[1-(tetrahydro-furan-2-ylmethyl)-1H-tetrazol-5-yl]-butyl}-amine]: the IC50 came out at 5.8 µM.

Consider `Cc1ccc(O)c(C(NCCCn2ccnc2)c2nnnn2C[C@@H]2CCCO2)c1` (stereo partly drawn) [compound 11, 2-((3-Imidazol-1-yl-propylamino)-{1-[(S)-1-(tetrahydro-furan-2-yl)methyl]-1H-tetrazol-5-yl}-methyl)-4-methyl-phenol], for which the IC50 turned out to be 3.1 µM.

In the case of `c1cn(CCCNC(c2ccc3[nH]ccc3c2)c2nnnn2C[C@@H]2CCCO2)cn1` (stereo partly drawn) [compound 13, (3-Imidazol-1-yl-propyl)-((1H-indol-5-yl)-{1-[(S)-1-(tetrahydro-furan-2-yl)methyl]-1H-tetrazol-5-yl}-methyl)-amine], the IC50 was 6.7 µM.

Take `CCc1ccc(C(Nc2ccc3[nH]cnc3c2)c2nnnn2Cc2cccnc2)cc1` (stereo not shown) [compound 82, (1H-Benzoimidazol-5-yl)-[(4-ethyl-phenyl)-(1-pyridin-3-ylmethyl-1H-tetrazol-5-yl)-methyl]-amine]: the IC50 came to 4 µM.

With `CC(Cc1ccc2c(c1)OCO2)C(Nc1ccc2[nH]cnc2c1)c1nnnn1CC1CCCO1` (stereo not shown) [compound 93, {3-Benzo[1,3]dioxol-5-yl-2-methyl-1-[1-(tetrahydro-furan-2-ylmethyl)-1H-tetrazol-5-yl]-propyl}-(1H-benzoimidazol-5-yl)-amine], the IC50 came to 7.6 µM.

Regarding `CCCCn1nnnc1C(NCCCn1ccnc1)c1ccc(Cl)c(Cl)c1` (stereo not shown) [compound 18, [(1-Butyl-1H-tetrazol-5-yl)-(3,4-dichloro-phenyl)-methyl]-(3-imidazol-1-yl-propyl)-amine], the IC50 stood at 7.6 µM.

With `CC(C)(C)Cn1nnnc1C(NCCCn1ccnc1)c1ccc2[nH]ccc2c1` (stereo not shown) [compound 65, [[1-(2,2-Dimethyl-propyl)-1H-tetrazol-5-yl]-(1H-indol-5-yl)-methyl]-(3-imidazol-1-yl-propyl)-amine], the IC50 was 4.9 µM.

In the case of `CCCCn1nnnc1C(NCCCn1ccnc1)c1ccc2cccc(O)c2n1` (stereo not shown) [compound 20, 2-[(1-Butyl-1H-tetrazol-5-yl)-(3-imidazol-1-yl-propylamino)-methyl]-quinolin-8-ol], the IC50 was 2.2 µM.

Consider `Cc1ccc(O)c(C(NCCCn2ccnc2)c2nnnn2C2CC2)c1` (stereo not shown) [Compound 68, 2-[(1-Cyclopropyl-1H-tetrazol-5-yl)-(3-imidazol-1-yl-propylamino)-methyl]-4-methyl-phenol], for which the IC50 worked out at 0.4 µM.

Take `c1ccc(C(c2ccccc2)n2nnnc2C(Nc2ccc3[nH]cnc3c2)c2ccc3nsnc3c2)cc1` (stereo not shown) [compound 112, [(1-Benzhydryl-1H-tetrazol-5-yl)-benzo[c][1,2,5]thia-diazol-5-yl-methyl]-(1H-benzoimidazol-5-yl)-amine]: the IC50 was 5.8 µM.

(Values after patent US7741354B2, “Inhibitors of glutaminyl cyclase” (Probiodrug AG, priority 2006, dated 2010).)
